Measured values reported in patent publication US11433092B2, “Compositions and methods of use for wound healing” (SYNEDGEN, INC., priority 2013, dated 2022).

Test system: Methicillin Resistant Staphylococcus aureus (NRS 384/USA 300)
Test: Deep partial thickness biofilm prevention porcine wound model, MRSA
Assay type: in vivo
Experimental: The animals were prepared as described (above). Ninety-six (96) rectangular wounds measuring 10 mm×7 mm×0.5 mm deep were made in the paravertebral and thoracic area with a specialized electrokeratome fitted with a 7 mm blade. The wounds were separated from one another by 15 mm of unwounded skin and individually dressed. The wounds were then inoculated and treated. A fresh culture of Acinetobacter baumannii ATCC 19606 or Methicillin Resistant Staphylococcus aureus (NRS 384/USA 300) was used in these studies. The challenge inoculum suspension was prepared by scraping the overnight growth from a culture plate into 5 ml of normal saline. […] Serial dilutions were made until a concentration of 10^6 CFU/ml was achieved. […] In addition, serial dilutions of the suspension were plated onto selective media and the plates were incubated aerobically overnight (16-24 hours) at 37° C., in order to quantify the exact concentration of viable organisms used for this experiment. […]
Twelve (12) wounds were recovered from each treatment group on each assessment day (days 3 and 4). […] Serial dilutions were made from all culture samples, and the extent of microbiological contamination was assessed using the Spiral Plater System (Spiral Biotech, Norwood, Mass.). […] All plates were incubated aerobically overnight 24 hours at 37° C., after which time the number of viable colonies were counted.

C/C(=C\C(=O)OCCCCCCCCC(=O)O)C[C@@H]1OC[C@H](C[C@@H]2O[C@H]2[C@@H](C)[C@H](C)O)[C@@H](O)[C@H]1O [mupirocin]
biofilm infection at day 3 compared to day 4 (MRSA) (across treatment days): significant reduction in biofilm infection | biofilm infection (MRSA) (days 3 and 4): significantly reduced biofilm infection
